From patent US6387889B1, “Medicinal compositions for treating eye diseases” (Yamasa Corporation, priority 1998, dated 2002) come the findings set out here.

The LD50 is the dose at which mortality reaches 50%. A higher LD50 goes with a less toxic substance. A word on the melting point: it is the temperature of the solid-liquid transition.

For data set [1], the system named is rabbit of normal ocular tension. The data set is described as follows: Test Example 2: effect of lowering ocular tension after instillation of test compound to rabbit of normal ocular tension. The class given is in vivo, Japanese white male rabbits. As to conditions: 0.1% (W/V), 50 μL instilled; for AUC: area under curve of time vs difference in ocular tension between treated eye and eye drop base eye, up to 480 minutes; for Emax: maximum difference in ocular tension between treated eye and eye drop base eye. The procedure:
Compounds shown in Table 1 were used as test compounds. Each compound was dissolved in saline containing polysorbate 80 (hereinafter the saline will be referred to as “eye drop base A”) or in an aqueous solution of boric acid buffer (pH 7.0) containing polysorbate 80 (hereinafter the solution will be referred to as “eye drop base B”) (polysorbate 80 content of each base: 5 mg/mL), to thereby obtain a test solution. The amount of each compound in the resultant solution was 0.1% (W/V). The eye drop bases were employed as a control.
Japanese white male rabbits (Kitayama Labes Co., Ltd.) (weight: 2.1-3.2 kg) were employed in the test. The rabbits were retained in a box-type fixation apparatus and employed in the test.
The ocular tension of each rabbit was measured by use of Model 30 Classic Pneumatonometer (product of Mentor) without anesthesia. Before the ocular tension was measured, 0.4% oxybuprocaine hydrochloride (Benoxil 0.4% eye drop solution, product of Santen Pharmaceutical Co., Ltd.) was instilled to the eyes of each rabbit, to thereby anesthetize the surface of the cornea. The ocular tension of each rabbit was measured several times at regular intervals. After the ocular tension became stable, the ocular tension was measured three times, and the average value was employed as the ocular tension.
A 0.1% solution of each test compound (50 μL) was instilled to one eye of each of the respective rabbits, and simultaneously the eye drop base (50 μL) was instilled to the remaining eye. The ocular tensions of both eyes were measured 60 minutes before instillation of the test compound; 0 minute immediately before instillation; and 30, 60, 90, 120, 150, 180, 240, 300, 360, 420, and 480 minutes after instillation. Two to six rabbits were employed for each test compound. For control, the eye drop base was instilled to both eyes of each respective rabbit, and the ocular tension was measured in a manner similar to that described above.
For each test compound, the effect of lowering ocular tension was evaluated on the basis of the following values: the area under the curve of time versus change in difference between the ocular tension of the eye to which the test compound was instilled and that of the eye to which the eye drop base was instilled (hereinafter the area will be abbreviated as AUC (mmHg·min)); and the maximum value of difference between the ocular tension of the eye to which the test compound was instilled and that of the eye to which the eye drop base was instilled (hereinafter the value will be abbreviated as Emax (mmHg)).

The subject of data set [2] is ocular tension in rabbits. The data set is described as follows: Test Example 1: ocular tension after instillation to rabbits (FIGS. 1 and 2). The conditions noted are these: 0.03% and 0.1% (W/V) in 15% aqueous dimethyl sulfoxide, 50 μL instilled once; 15-180 minutes after instillation; CGS-21680 0.1% (w/v). The class given is in vivo, New Zealand white male rabbits. The procedure: 2-(1-Octynyl)adenosine, 2-(3-hydroxy-1-propynyl)adenosine, and CGS-21680 [2-((4-(2-carboxyethyl)phenylethyl)amino)adenosine-5′-N-ethyluronamide] were used as test compounds. Each compound was dissolved in a 15% aqueous solution of dimethyl sulfoxide (hereinafter the solution will be referred to as an “eye drop base”), to thereby obtain a test solution. The amounts of 2-(1-octynyl)adenosine and 2-(3-hydroxy-1-propynyl)adenosine were 0.03% (W/V) and 0.1% (W/V), respectively. The amount of CGS-21680 in the resultant solution was 0.1% (w/v). The eye drop base was employed as a control.
New Zealand white male rabbits (Tokyo Jikken Dobutsu) (weight: 2.2-3.1 kg) were employed in the test. […]
The ocular tension of each rabbit was measured by use of an applanation pneumatonometer (Alcon, PTG) without anesthesia. Before the ocular tension was measured, 0.4% oxybuprocaine hydrochloride (Benoxil 0.4% eye drop, product of Santen Pharmaceutical Co., Ltd.) was instilled to the eyes of each rabbit, to thereby anesthetize the surface of the cornea. Before administration of drugs, the ocular tension of each rabbit was measured several times at 15-minute intervals until the ocular tension became stable. After the ocular tension became stable, the ocular tension was measured three times, and the average value was employed as the normal ocular tension. […]

Data set [3] can be described thus: Test Example 3: single oral dose toxicity in rats. As to conditions: both sexes, SD, in vivo, rat, observed for two weeks, maximum dose. The procedure: To six-week-old male and female SD rats (six for each group), 2-(1-octynyl)adenosine was administered orally at a single dose of 521, 729, 1020, 1429, or 2000 mg/kg.
Data set [4] in a line: Test Example 3: single oral dose toxicity in dogs. The conditions noted are these: both sexes, beagle, in vivo, dog, observed for two weeks, maximum dose. The procedure: To nine-month-old male and female beagle dogs (two for each group), 2-(1-octynyl)adenosine was administered orally at a single dose of 50, 150, or 450 mg/kg.
Where [5] appears, read: eye drop base A (saline with polysorbate 80).
[6] abbreviates: eye drop base B (boric acid buffer pH 7.0 with polysorbate 80).

Take `CCNC(=O)[C@H]1O[C@@H](n2cnc3c(N)nc(NCCc4ccc(CCC(=O)O)cc4)nc32)[C@H](O)[C@@H]1O` [CGS-21680, 2-((4-(2-carboxyethyl)phenylethyl)amino)adenosine-5′-N-ethyluronamide, reference compound]: in data set [1] (setting [5]), the AUC is −508.1 mmHg.min and the Emax is recorded as −2.5 mmHg.
`CCCCC#Cc1nc(N)c2ncn([C@@H]3O[C@H](CO)[C@@H](O)[C@H]3O)c2n1` [Compound 1, 2-(1-hexynyl)adenosine]: in data set [1] (setting [6]), the AUC is given as −1236.0 mmHg.min and the Emax was −4.6 mmHg.
Turning to `CCCCCCC#Cc1nc(N)c2ncn([C@@H]3O[C@H](CO)[C@@H](O)[C@H]3O)c2n1` [Compound 2, 2-(1-octynyl)adenosine], the “effect of lowering ocular tension (ΔIOP)” value in data set [2] is recorded as “excellent effect of lowering ocular tension, as compared with CGS-21680”. The same molecule had an AUC in data set [1] (setting [5]) of −1093.5 mmHg.min. For the same molecule, the Emax in data set [1] (setting [5]) is −4.2 mmHg. Moreover, the LD50 at 2 weeks in data set [3] is at least 2000 mg/kg; in data set [4], at least 450 mg/kg.
For `Nc1nc(C#CCCCCN2C(=O)c3ccccc3C2=O)nc2c1ncn2[C@@H]1O[C@H](CO)[C@@H](O)[C@H]1O` [Compound 3, 2-(6-phthalimidyl-1-hexynyl)adenosine], in data set [1] (setting [5]), the AUC is −1471.0 mmHg.min and the Emax is listed as −6.3 mmHg.
Regarding `Nc1nc(C#CCO)nc2c1ncn2[C@@H]1O[C@H](CO)[C@@H](O)[C@H]1O` [Compound 4, 2-(3-hydroxy-1-propynyl)adenosine], in data set [2], the “effect of lowering ocular tension (ΔIOP)” value was “excellent effect of lowering ocular tension, as compared with CGS-21680”. In data set [1] (setting [5]), this molecule showed an AUC of −955.6 mmHg.min and an Emax of −4.3 mmHg.
Turning to `Nc1nc(C#CC(O)c2ccccc2)nc2c1ncn2[C@@H]1O[C@H](CO)[C@@H](O)[C@H]1O` (stereo partly drawn) [Compound 5, 2-(3-hydroxy-3-phenyl-1-propynyl)adenosine], in data set [1] (setting [5]), the AUC is listed as −1185.6 mmHg.min and the Emax is reported as −4.8 mmHg.
`CCOCC#Cc1nc(N)c2ncn([C@@H]3O[C@H](CO)[C@@H](O)[C@H]3O)c2n1` [Compound 6, 2-(3-ethoxy-1-propynyl)adenosine] had a melting point of 120 to 127 °C. In data set [1] (setting [5]), this molecule displayed an AUC of −1538.3 mmHg.min and an Emax of −5.3 mmHg.
In data set [1] (setting [6]), `CCCOCCC#Cc1nc(N)c2ncn([C@@H]3O[C@H](CO)[C@@H](O)[C@H]3O)c2n1` [Compound 7, 2-(4-propoxy-1-butynyl)adenosine] came in with an AUC of −1828.5 mmHg.min and an Emax of −4.9 mmHg.
In data set [1] (setting [6]), `CCCCCCCCOCCC#Cc1nc(N)c2ncn([C@@H]3O[C@H](CO)[C@@H](O)[C@H]3O)c2n1` [Compound 8, 2-(4-octoxy-1-butynyl)adenosine] yielded an AUC of −1683.0 mmHg.min and an Emax of −5.4 mmHg.
In the same order, the values of `CCOCCCC#Cc1nc(N)c2ncn([C@@H]3O[C@H](CO)[C@@H](O)[C@H]3O)c2n1` [Compound 9, 2-(5-ethoxy-1-pentynyl)adenosine] are −1117.5 mmHg.min and −3.7 mmHg.
For the molecule `Nc1nc(C#CCOC2CCCCC2)nc2c1ncn2[C@@H]1O[C@H](CO)[C@@H](O)[C@H]1O` [Compound 10, 2-(3-cyclohexyloxy-1-propynyl)adenosine], in data set [1] (setting [5]), the AUC is reported as −945.9 mmHg.min and the Emax is −4.3 mmHg.
As to `Nc1nc(C#CC2CCCC2)nc2c1ncn2[C@@H]1O[C@H](CO)[C@@H](O)[C@H]1O` [Compound 11, 2-(2-cyclopentyl-1-ethynyl)adenosine], in data set [1] (setting [6]), the AUC is given as −1532.7 mmHg.min and the Emax was −4.4 mmHg.
In the same order, the values of `Nc1nc(C#CC2CCCCC2)nc2c1ncn2[C@@H]1O[C@H](CO)[C@@H](O)[C@H]1O` [Compound 12, 2-(2-cyclohexyl-1-ethynyl)adenosine] are −1670.2 mmHg.min and −6.0 mmHg.
As to `Nc1nc(C#CCC2CCCC2)nc2c1ncn2[C@@H]1O[C@H](CO)[C@@H](O)[C@H]1O` [Compound 13, 2-(3-cyclopentyl-1-propynyl)adenosine], in data set [1] (setting [6]), the AUC was −1053.9 mmHg.min and the Emax is −5.9 mmHg.
In the case of `Nc1nc(C#CCC2CCCCC2)nc2c1ncn2[C@@H]1O[C@H](CO)[C@@H](O)[C@H]1O` [Compound 14, 2-(3-cyclohexyl-1-propynyl)adenosine], in data set [1] (setting [6]), the AUC is recorded as −1053.2 mmHg.min and the Emax was −4.0 mmHg.
In data set [1] (setting [6]), `Nc1nc(C#CCCC2CCCC2)nc2c1ncn2[C@@H]1O[C@H](CO)[C@@H](O)[C@H]1O` [Compound 15, 2-(4-cyclopentyl-1-butynyl)adenosine] came in with an AUC of −1086.0 mmHg.min and an Emax of −5.6 mmHg.
In data set [1] (setting [5]), `CCCCC#Cc1nc(N)c2ncn([C@@H]3O[C@H](C(=O)NC)[C@@H](O)[C@H]3O)c2n1` [Compound 16, 2-(1-hexynyl)adenosine-4′-methylcarboxamide] showed an AUC of −1838.3 mmHg.min and an Emax of −6.0 mmHg.
